Data taken from PMC10648877, “Novel Substituted Azoloazines with Anticoagulant Activity” (International Journal of Molecular Sciences, 2023).
Several values for one entry are separate records, joined by “and”; a condition that tells them apart may be missing. Identical values can stand only once.

Tests used:
coagulograms of rats [1] = assay: Prothrombin time after single intragastric administration, rats with hypercytokinemia (LPS); type: in vivo, rat
Protocol: (§1) Distilled water was used as a solvent. In all experiments, control animals were injected with an equivalent volume of a vehicle. The reference drug dabigatran etexilate was administered to rats 2 h before the study at a 12 mg/kg dose (equivalent to the human dose, taking into account the interspecies conversion factor).
(§2) Coagulogram parameters of platelet-poor plasma were measured with a SOLAR coagulometer according to the methods described above.
(§3) Hypercytokinemia conditions were modeled by an intravenous injection of S. typhimurium LPS (Sigma Aldrich, St. Louis, MO, USA) at a final dose of 2 mg/kg into the tail vein of the rats 2 h before the administration of the substances. The evaluation of anticoagulant activity was conducted according to the methods described above.

LPS-treated PPP [2] = assay: Thrombin time, rabbit blood treated with LPS in vitro (hypercytokinemia); type: biochemical; conditions: for Δ % of Thrombin Time Prolongation Relative To Control + LPS: with LPS
Protocol: (§4) Hypercytokinemia conditions were modeled by incubation of whole blood with S. typhimurium LPS (Sigma Aldrich, St. Louis, MO, USA) at a final concentration of 20 ng/mL and subsequent preparation of PPP.
(§5) The calculation of EC50 (effective concentration that prolongs the time of clot formation by 50%) was performed using linear regression analysis.

coagulograms of rats [3] = assay: Thrombin time after single intragastric administration, rats without hypercytokinemia; type: in vivo, rat; conditions: dabigatran etexilate 12 mg/kg
Protocol: as §1, with “factor). Compound 5d was administered to rats 2 h before the study in a 5.5 mg/kg dose, equimolar to the dose of dabigatran etexilate.” for “factor).”
(§6) To stabilize the blood, a 3.8% aqueous solution of sodium citrate (pH 6.0) was used in a ratio of 9:1. Coagulogram parameters of platelet-poor plasma were measured with a SOLAR coagulometer according to the methods described above.

[4] = tested on: platelet-poor plasma (PPP); assay: Prothrombin time (PT), rabbit blood coagulogram in vitro; conditions: 100 μM; for PT: M ± m, n = 6;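 for all read-outs here: clotting time read chronometrically on a hemocoagulometer using commercial reagent kits, with dabigatran etexilate at the same concentration as reference anticoagulant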
Protocol: The study was performed on platelet-poor plasma (PPP) stabilized with a 3.8% sodium citrate solution in a ratio of 9:1 according to the method described in [34]. Dabigatran etexilate (Boehringer Ingelheim Pharma GmbH and Co., Ingelheim am Rhein, Germany) was used as the reference drug. Test compounds and the reference drug were evaluated at a concentration of 100 μM. Effect on rabbit blood coagulograms in vitro was determined chronometrically with a SOLAR hemocoagulometer (Minsk, Belarus) using commercial kits (Technology-Standard, Barnaul, Russia) as per the manufacturer’s instructions. The following parameters were determined: activated partial thromboplastin time, thrombin time, and prothrombin time.

[5] = tested on: platelet-poor plasma (PPP); assay: Activated partial thromboplastin time (APTT), rabbit blood coagulogram in vitro; type: biochemical; conditions: 100 μM; for APTT: M ± m, n = 6;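 for all read-outs here: clotting time read chronometrically on a hemocoagulometer with commercial reagent kits, one of several coagulogram parameters alongside thrombin and prothrombin time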
Protocol: Test compounds and the reference drug were evaluated at a concentration of 100 μM. Effect on rabbit blood coagulograms in vitro was determined chronometrically with a SOLAR hemocoagulometer (Minsk, Belarus) using commercial kits (Technology-Standard, Barnaul, Russia) as per the manufacturer’s instructions. The following parameters were determined: activated partial thromboplastin time, thrombin time, and prothrombin time.

coagulograms of rats [6] = assay: Thrombin time after single intragastric administration, rats with hypercytokinemia (LPS); type: in vivo, rat
Protocol: as §1, with “factor). Compound 5d was administered to rats 2 h before the study in a 5.5 mg/kg dose, equimolar to the dose of dabigatran etexilate.” for “factor).”
as §6, §3

LPS-treated PPP [7] = assay: APTT, rabbit blood treated with LPS in vitro (hypercytokinemia); type: biochemical; conditions: rabbit blood treated with LPS in vitro, 100 μM
Protocol: as §4

coagulograms of rats [8] = assay: Prothrombin time after single intragastric administration, rats without hypercytokinemia; type: in vivo, rat; conditions: single intragastric dose, 2 h, dabigatran etexilate 12 mg/kg, 5d 5.5 mg/kg (equimolar)
Protocol: as §1, §2

[9] = tested on: platelet-poor plasma (PPP); assay: Thrombin time (TT), rabbit blood coagulogram in vitro; type: biochemical; conditions: for TT: M ± m, n = 6
LPS-treated PPP [10] = assay: Prothrombin time, rabbit blood treated with LPS in vitro (hypercytokinemia); type: biochemical; conditions: 100 μM
Protocol: as §4

[11] = tested on: platelet-poor plasma (PPP); assay: Ecarin clotting time in vitro; type: biochemical
Protocol: The ecarin clotting time was designed for the determination of antithrombin anticoagulant activity in platelet-poor plasma. Venous blood was collected into a 15 mL Falcon type plastic tube with 3.8% sodium citrate solution (0.5 mL of sodium citrate per 5 mL of blood), centrifuged on a CM-6M centrifuge (Elmi, Riga, Latvia) at room temperature from 18 to 25 °C for 15 min at 3000 rpm (1200× g). The obtained plasma was withdrawn using an automatic pipette and transferred to a separate clean, dry plastic tube. After that, the obtained plasma was recentrifuged under the same conditions and the upper third of the plasma was taken for analysis.
The ecarin stock solution (STA-ECT, Stago, Düsseldorf, Germany) was prepared according to the manufacturer’s instructions and diluted to 4 units/mL with HEPES-buffered saline (0.2 M) containing 0.025 M calcium chloride.
The tested samples were investigated in the concentration range from 100 to 1 μM for IC50 determination.
Prepared reagents and platelet-poor plasma were heated to 37 °C. The assay was performed on a Solar CGL2120 coagulometer (Belarus), adding 50 µL of the reagent ecarin to 100 µL of PPP and recording the clotting time.
as §5

coagulograms of rats [12] = assay: APTT after single intragastric administration, rats with hypercytokinemia (LPS); type: in vivo, rat; conditions: dabigatran etexilate 12 mg/kg
Protocol: as §1, with “factor). Compound 5d was administered to rats 2 h before the study in a 5.5 mg/kg dose, equimolar to the dose of dabigatran etexilate.” for “factor).”
as §6, §3

coagulograms of rats [13] = assay: APTT after single intragastric administration, rats without hypercytokinemia; type: in vivo, rat; conditions: dabigatran etexilate 12 mg/kg
Protocol: as §1, with “factor). Compound 5d was administered to rats 2 h before the study in a 5.5 mg/kg dose, equimolar to the dose of dabigatran etexilate.” for “factor).”
as §6

[14] = rats with hypercytokinemia (LPS 2 mg/kg i.v.), single intragastric dose, 2 h, dabigatran etexilate 12 mg/kg, 5d 5.5 mg/kg
[15] = intact rats, 2 h after intragastric administration, 5d 5.5 mg/kg
[16] = rats without hypercytokinemia, single intragastric dose, 2 h, 5d 5.5 mg/kg (equimolar)

## C1=C(c2cccs2)n2ncnc2NC1c1cccs1 (stereo not drawn) [Compound 5d, 7,5-Di(2-thienyl)-4,5-dihydro-[1,2,4]triazolo[1,5-a]pyrimidine]
Coagulograms of rats [1]; [14]
  PT: 26.4 ± 1.4 s
Coagulograms of rats [1]; rats with systemic inflammatory reaction (LPS)
  effect on prothrombin time: neither the test compound nor dabigatran etexilate had an effect
LPS-treated PPP [2]; 1 μM
  Δ % of Thrombin Time Prolongation Relative To Control + LPS: 56.3% and 56.3 ± 1.1 %
LPS-treated PPP [2]; 5 μM
  Δ % of Thrombin Time Prolongation Relative To Control + LPS: 234.1% and 234.1 ± 4.2 ^#$ %
LPS-treated PPP [2]; 10 μM
  Δ % of Thrombin Time Prolongation Relative To Control + LPS: 354.1% and 354.1 ± 6.5 ^#$ %
LPS-treated PPP [2]; LPS-treated rabbit blood in vitro, 100 μM
  prolongation of thrombin time relative to LPS-treated blood control: 17.0 times
Coagulograms of rats [3]; [15]
  increase of thrombin time relative to intact control: 5.6 times
Coagulograms of rats [3]; [16]
  TT: 325.3 ± 5.1 s
[4]
  effect on prothrombin time: did not affect the prothrombin time
  PT: 14.08 ± 0.4 s
[5]
  increase of APTT relative to the control: 1.3 times
  APTT: 61.78 ± 4.58 s
Coagulograms of rats [6]; LPS-injected rats, dabigatran etexilate 12 mg/kg, 5d 5.5 mg/kg intragastric
  increase of thrombin time in relation to the LPS control group: 14.5 times
Coagulograms of rats [6]; [14]
  TT, s: 640.3 ± 7.4 ^#$ s
Coagulograms of rats [6]; rats, single intragastric administration
  antithrombin effect under systemic inflammation reaction versus its absence: twice as pronounced
LPS-treated PPP [7]
  APTT: 61.78 ± 4.58 s
Coagulograms of rats [8]
  PT: 24.5 ± 1.1 s
[9]; 1 μM, without LPS
  Δ% of Thrombin Time Prolongation Relative to Control: 46.5% and 46.5 ± 6.7 %
[9]; 5 μM, without LPS
  Δ% of Thrombin Time Prolongation Relative to Control: 194.1% and 194.1 ± 10.0 %
[9]; 10 μM, without LPS
  Δ% of Thrombin Time Prolongation Relative to Control: 467.1% and 467.1 ± 14.4 %
[9]; rabbit blood in vitro, 100 μM
  TT: 154.43 ± 11.14 s
[9]; rabbit blood in vitro, 100 μM, versus reference drug
  prolongation of thrombin time exceeding dabigatran etexilate: 2.2 times
[9]; without LPS, concentration that prolongs clot formation time by 50%, read-out: EC50, μM (thrombin time prolongation)
  EC50: 1.25 µM and 1.3 µM
LPS-treated PPP [10]
  PT: 14.08 ± 0.4 s
[11]; 1 μM
  ecarin clotting time: 40.2 s
[11]; 10 μM
  ecarin clotting time: 50.5 s
[11]; 100 μM
  ecarin clotting time: 81.3 s
[11]; concentration range 100 to 1 μM
  EC50: 17.9 µM
Coagulograms of rats [12]; LPS-injected rats, 5d 5.5 mg/kg intragastric
  prolongation of APTT in relation to the LPS control group: 1.6 times
Coagulograms of rats [12]; rats with hypercytokinemia (LPS 2 mg/kg i.v.), single intragastric dose, 2 h, 5d 5.5 mg/kg
  APTT: 28.7 ± 1.0 s
Coagulograms of rats [13]; [15]
  prolongation of APTT compared to the control: 1.5 times
Coagulograms of rats [13]; [16]
  APTT: 59.2 ± 8.3 s

## Nc1ccc(-c2cc(-c3cccs3)n3ncnc3n2)cc1 [Compound 7b, 4-(7-(Thiophen-2-yl)-[1,2,4]triazolo[1,5-a]pyrimidin-5-yl)aniline]
[4]
  PT: 13.6 ± 0.5 s
other
  melting point: 211 to 214 °C
[5]
  APTT: 35.0 ± 0.2 s
[9]; rabbit blood in vitro, 100 μM
  TT: 32.3 ± 0.9 s
